Key:
[1] = target: Carbonic anhydrase 13 (Homo sapiens, UniProt Q8N1Q1)
[2] = target: Carbonic anhydrase 3 (Homo sapiens, UniProt P07451)
Carbonic anhydrase 3, sequence (P07451 whole entry): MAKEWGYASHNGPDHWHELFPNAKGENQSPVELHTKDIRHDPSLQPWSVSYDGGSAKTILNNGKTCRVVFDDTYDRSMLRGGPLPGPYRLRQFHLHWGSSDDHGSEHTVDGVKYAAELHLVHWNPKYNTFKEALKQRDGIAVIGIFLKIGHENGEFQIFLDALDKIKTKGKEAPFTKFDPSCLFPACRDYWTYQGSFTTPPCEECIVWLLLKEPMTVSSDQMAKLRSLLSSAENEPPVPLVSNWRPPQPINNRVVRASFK

Carbonic anhydrase 13, sequence (Q8N1Q1 whole entry): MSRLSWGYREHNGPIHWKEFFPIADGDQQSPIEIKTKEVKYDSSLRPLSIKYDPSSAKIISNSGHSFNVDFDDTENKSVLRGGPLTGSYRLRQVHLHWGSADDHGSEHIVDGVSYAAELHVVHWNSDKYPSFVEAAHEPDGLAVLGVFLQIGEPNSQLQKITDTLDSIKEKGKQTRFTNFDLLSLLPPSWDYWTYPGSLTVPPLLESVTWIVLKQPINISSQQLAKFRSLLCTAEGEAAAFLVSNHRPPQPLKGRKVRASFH

Compound	Ki [1]	Ki [2]
NS(=O)(=O)c1cc(Cl)c(Cl)c(S(N)(=O)=O)c1 [DICHLORPHENAMIDE]	0.023 µM	–
NS(=O)(=O)c1ccc(NC(=O)Cc2cccs2)cc1	0.125 µM	800 µM

Reference: ChEMBL document CHEMBL1795230, “Conformational variability of different sulfonamide inhibitors with thienyl-acetamido moieties attributes to differential binding in the active site of cytosolic human carbonic anhydrase isoforms” (Bioorg Med Chem, 2011)
